The text below walks through data of PubChem BioAssay AID1963958 (Molecular Pharmacology Branch, DTP, NCI, 2024).

pIC50: −log10 of the molar value. Values joined by “and” are separate entries in the source; they are usually repeats but may differ in a detail not shown here. Equal entries are not always repeated. Bounds are passed on as bounds.

For the experiment, the system named is MDA-MB-231 multicell spheroids, viability. Briefly: Anticancer human tumor MDA-MB-231 cell line growth inhibition [PI3K].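 For all read-outs here: spheroids exposed to agents for seven days before reading.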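 For viability, T/C: percent of vehicle control luminescence with DMSO treated spheroids as 100%.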 Particulars: for viability, T/C: stronger effect = lower value. From the text:
Combinatorial screen of targeted agents with the PI3K inhibitors inavolisib, alpelisib, duvelisib, and copanlisib in multi-cell type tumor spheroids
A high-throughput screen of multi-cell type tumor spheroids was designed to identify active combinations of targeted small molecules and PI3K pathway inhibitors. Complex spheroids include a stromal component modeled by human endothelial cells (HUVEC) and fibroblasts modeled by human mesenchymal stem cells (MSCs). The concentration ranges selected for each drug and investigational agent were based upon clinically achievable concentrations if the clinical Cmax of the agent was known.
Compounds. The drugs and investigational agents: inavolisib (NSC800729), alpelisib (NSC765974), duvelisib (NSC772469), copanlisib (NSC816437), ipatasertib (NSC767898), afuresertib (NSC778305), talazoparib (NSC767125), sapanisertib (NSC764658), selumetinib (NSC741078), tovorafenib (DAY101, NSC766906), vemurafenib (NSC761431), ravoxertinib (NSC781343), sotorasib (NSC818433), MRTX1133 (NSC 836407), abemaciclib (NSC 768073), palbociclib (NSC758247), venetoclax (NSC 766270), SY5609 (NSC837396), enzalutamide (NSC755605), and darolutamide (NSC825331), were obtained from the National Cancer Institute (NCI) Developmental Therapeutics Program Chemical Repository. The FDA-approved anticancer drug set is available from the NCI Developmental Therapeutics Program. […] The stock solutions were prepared in dimethyl sulfoxide (DMSO, Sigma-Aldrich, St. Louis, MO, cat. D2650) at 800-fold the tested concentration and stored at -70 degrees C prior to their use. All drugs and investigational agents were tested over a range starting from a high concentration at or near the clinical Cmax and decreasing in half-log increments. If the clinical Cmax for an agent had not been determined, the highest concentration tested was 10 microM.
Cell Culture. All cells were maintained in an incubator at 37 degrees C and 5% CO2 with 95% humidity. The PDC lines were cultured according to standard operating procedures established by the NCI PDMR (https://pdmr.cancer.gov/sops/default.htm). All PDCs were thawed and cultured in Matrigel-coated flasks prepared with a working solution of 1X Ham's F-12 nutrient mix, without supplementation (Invitrogen, Waltham, MA, cat. 11765054), 100 U/mL penicillin-streptomycin (Invitrogen, cat. 15140122), and 2.5% Matrigel (Corning Inc., Corning, NY, cat. 354248) for the first three passages. The 354836-022-R-J1-PDC, 475296-252-R-J1-PDC, and 997726-040-R-J2-PDC lines were cultured in 6A media, which includes advanced DMEM/F-12 (Thermo Fisher Scientific, cat. 12634028), 10 mM HEPES (Thermo Fisher Scientific, cat. 15630080), 1X GlutaMAX supplement (Thermo Fisher Scientific, cat. 35050061), 0.1 mg/mL primocin (InvivoGen, San Diego, CA, cat. ant-pm-2), 10% defined fetal bovine serum, heat inactivated (HyClone Laboratories Inc., Logan, UT, cat. SH30070.03HI), 50% L-WRN conditioned media (ATCC, cat. CRL-3276), 1.25 mM N-Acetyl-L-cysteine (Sigma-Aldrich, cat. A9165), 10 mM nicotinamide (Sigma-Aldrich, cat. N0636), 1X B-27 supplement (Thermo Fisher Scientific, cat. 17504044), 1X N-2 supplement (Thermo Fisher Scientific, cat. 17502048), and 10 microM Y-27632 dihydrochloride (Tocris Bioscience, Bristol, United Kingdom, cat. 1254). The 624824-186-R-J2-PDC line was cultured in 6C/Colon 1B media, which includes all 6A media components plus 50 ng/mL human EGF recombinant protein (Thermo Fisher Scientific, cat. PHG0311). […]

The mark [1] stands for this setting: compound alone, run of 05/08/2023.

Turning to `CC(=O)c1c(C)c2cnc(Nc3ccc(N4CCNCC4)cn3)nc2n(C2CCCC2)c1=O`, the viability, T/C reads like this: (compound 0.000316 µM) 105% [middle of 4 runs]; (compound 0.001 µM) 104% and 100% and 103% (2×); (compound 0.00316 µM) 101% [middle of 4 runs]; (compound 0.01 µM) 90% [middle of 4 runs]; (compound 0.0316 µM) 79.7% [middle of 4 runs]; (compound 0.1 µM) 49.9% [middle of 4 runs]. Besides, the negative logarithm of the IC50 (pIC50) (curve of compound) was 7.01 and 7.04 and < 7.00.

Take `CC(C)NCC(C(=O)N1CCN(c2ncnc3c2C(C)CC3O)CC1)c1ccc(Cl)cc1` (configuration not stated): the viability, T/C by setting is: (compound 0.0316 µM) 114% [middle of 4 runs]; (compound 0.1 µM) 102% [middle of 4 runs]; (compound 0.316 µM) 97.3% [middle of 4 runs]; (compound 1 µM) 87.9% [middle of 4 runs]; (compound 3.16 µM) 70.9% [middle of 4 runs]; (compound 10 µM) 49.8% [middle of 4 runs]. Also, under “curve of compound”, the negative logarithm of the IC50 (pIC50) was < 5.00 and 5.05 and 5.11.

`CC(C)n1nc(-c2ccc3oc(N)nc3c2)c2c(N)ncnc21`: the viability, T/C runs as follows: (compound 0.000316 µM) 107% [middle of 4 runs]; (compound 0.001 µM) 99.7% [middle of 4 runs]; (compound 0.00316 µM) 104% and 101% (2×) and 97.3%; (compound 0.01 µM) 84.7% [middle of 4 runs]; (compound 0.0316 µM) 67.4% [middle of 4 runs]; (compound 0.1 µM) 38.8% [middle of 4 runs]. For the same molecule, the IC50 (curve of compound) was 66.7 nM [middle of 4 runs].

Regarding `CC(Cn1ccc(-c2ccc(C#N)c(Cl)c2)n1)NC(=O)c1cc(C(C)O)[nH]n1` (configuration not stated), the viability, T/C by setting is: (compound 0.0316 µM) 106% [middle of 4 runs]; (compound 0.1 µM) 99% [middle of 4 runs]; (compound 0.316 µM) 111% [middle of 4 runs]; (compound 1 µM) 107% [middle of 4 runs]; (compound 3.16 µM) 100% [middle of 4 runs]; (compound 10 µM) 92.5% [middle of 4 runs]. Besides, for the setting “curve of compound”, the negative logarithm of the IC50 (pIC50) is under 5.00.

Regarding `CC(Nc1ccc2c(c1)OCCn1cc(N3C(=O)OCC3C(F)F)nc1-2)C(N)=O` (configuration not stated), the viability, T/C reads like this: (compound 0.00316 µM) 103% [middle of 8 runs]; (compound 0.01 µM) 96.1% [middle of 8 runs]; (compound 0.0316 µM) 81.9% [middle of 8 runs]; (compound 0.1 µM) 72.1% [middle of 8 runs]; (compound 0.316 µM) 64.8% [middle of 8 runs]; (compound 1 µM) 64.2% [middle of 8 runs]. Also, the negative logarithm of the IC50 (pIC50) under setting [1] is under 6.00.

In the case of `CC(Nc1ncnc2nc[nH]c12)c1cc2cccc(Cl)c2c(=O)n1-c1ccccc1` (configuration not stated), the viability, T/C reads like this: (compound 0.0316 µM) 105% [middle of 8 runs]; (compound 0.1 µM) 100% [middle of 8 runs]; (compound 0.316 µM) 95.5% [middle of 8 runs]; (compound 1 µM) 82.7% [middle of 8 runs]; (compound 3.16 µM) 63.9% [middle of 8 runs]; (compound 10 µM) 50.6% [middle of 8 runs].

On to `CC1(C)CCC(CN2CCN(c3ccc(C(=O)NS(=O)(=O)c4ccc(NCC5CCOCC5)c([N+](=O)[O-])c4)c(Oc4cnc5[nH]ccc5c4)c3)CC2)=C(c2ccc(Cl)cc2)C1`, for which the viability, T/C was 108% [middle of 4 runs] (compound 0.0316 µM); 103% [middle of 4 runs] (compound 0.1 µM); 109% [middle of 4 runs] (compound 0.316 µM); 113% [middle of 4 runs] (compound 1 µM); 113% (2×) and 112% and 119% (compound 3.16 µM).

For the molecule `CCCS(=O)(=O)Nc1ccc(F)c(C(=O)c2c[nH]c3ncc(-c4ccc(Cl)cc4)cc23)c1F`, the viability, T/C is 113% [middle of 4 runs] (compound 0.0316 µM); 111% [middle of 4 runs] (compound 0.1 µM); 104% [middle of 4 runs] (compound 0.316 µM); 89.3% [middle of 4 runs] (compound 1 µM); 68.9% [middle of 4 runs] (compound 3.16 µM); 34.8% [middle of 4 runs] (compound 10 µM). The IC50 (curve of compound) is 5.82 µM [middle of 4 runs].

On to `CCN1CCN(Cc2ccc(Nc3ncc(F)c(-c4cc(F)c5nc(C)n(C(C)C)c5c4)n3)nc2)CC1`, for which the viability, T/C (compound 0.00316 µM) was 102% [middle of 4 runs]; the viability, T/C (compound 0.01 µM) is 97.1% [middle of 4 runs]; the viability, T/C (compound 0.0316 µM) is 87% [middle of 4 runs]; the viability, T/C (compound 0.1 µM) was 67% and 57.2% and 58.3% (2×); the viability, T/C (compound 0.316 µM) is 56.5% and 44.8% and 49.5% (2×); the viability, T/C (compound 1 µM) is 49.3% [middle of 4 runs].

With `CNC(=O)c1ccc(N2C(=S)N(c3ccc(C#N)c(C(F)(F)F)c3)C(=O)C2(C)C)cc1F`, the viability, T/C (compound 0.0316 µM) is 110% [middle of 4 runs]; the viability, T/C (compound 0.1 µM) is 111% [middle of 4 runs]; the viability, T/C (compound 0.316 µM) was 113% [middle of 4 runs]; the viability, T/C (compound 1 µM) is 107% [middle of 4 runs]; the viability, T/C (compound 3.16 µM) was 98.3% [middle of 4 runs]; the viability, T/C (compound 10 µM) was 88.7% [middle of 4 runs]. For the same molecule, where the note is “curve of compound”, the pIC50 was under 5.00.

Regarding `COc1c(OCCCN2CCOCC2)ccc2c3n(c(=NC(=O)c4cnc(N)nc4)nc12)CCN3`, the viability, T/C is 99.7% [middle of 8 runs] (compound 0.00316 µM); 79.4% [middle of 8 runs] (compound 0.01 µM); 61.3% [middle of 8 runs] (compound 0.0316 µM); 46.3% [middle of 8 runs] (compound 0.1 µM); 31.6% [middle of 8 runs] (compound 0.316 µM); 26% [middle of 8 runs] (compound 1 µM). Further, under “compound alone, run of 05/09/2023”, the IC50 was 73.8 nM [middle of 8 runs].

Take `C[C@@H](NC(=O)c1ncnc(N)c1Cl)c1ncc(C(=O)Nc2cc(C(F)(F)F)c(Cl)cn2)s1`: the viability, T/C (compound 0.0316 µM) was 139% [middle of 4 runs]; the viability, T/C (compound 3.16 µM) was 77.3% [middle of 4 runs]; the viability, T/C (compound 10 µM) was 64.8% [middle of 4 runs]. For the same molecule, for the setting “curve of compound”, the negative-log IC50 (pIC50) is under 5.00.

`Cc1nc(NC(=O)N2CCCC2C(N)=O)sc1-c1ccnc(C(C)(C)C(F)(F)F)c1` (configuration not stated): the viability, T/C by setting is: (compound 0.0316 µM) 98.2% [middle of 8 runs]; (compound 0.1 µM) 88.9% [middle of 8 runs]; (compound 0.316 µM) 75.4% [middle of 8 runs]; (compound 1 µM) 71.2% [middle of 8 runs]; (compound 3.16 µM) 64.6% [middle of 8 runs]; (compound 10 µM) 63% [middle of 7 runs]. Also, under setting [1], the pIC50 was under 5.00.

`Cn1cnc2c(F)c(Nc3ccc(Br)cc3Cl)c(C(=O)NOCCO)cc21`: the viability, T/C reads like this: (compound 0.00949 µM) 72.7% [middle of 4 runs]; (compound 0.03 µM) 64.9% [middle of 4 runs]; (compound 0.0949 µM) 59.5% and 57.3% (2×) and 57.6%; (compound 0.3 µM) 53.2% [middle of 4 runs]; (compound 0.949 µM) 47.3% [middle of 4 runs]; (compound 3 µM) 34.5% [middle of 4 runs]. Under “curve of compound”, the IC50 was 431 nM [middle of 4 runs].

For `Cn1ncnc1[C@H]1c2n[nH]c(=O)c3cc(F)cc(c23)N[C@@H]1c1ccc(F)cc1`, the viability, T/C was 114% and 106% and 107% (2×) (compound 0.000316 µM); 95.2% [middle of 4 runs] (compound 0.00316 µM); 92.4% [middle of 4 runs] (compound 0.01 µM); 94% [middle of 4 runs] (compound 0.0316 µM); 88.7% [middle of 4 runs] (compound 0.1 µM). Where the note is “curve of compound”, the negative-log IC50 (pIC50) is under 7.00.

Usually viability, T/C stands for the ratio of treated to control. In general, pIC50 refers to −log10 of the IC50, conventionally taken in molar units. The IC50 is the midpoint of a concentration-inhibition curve.
